Source: patent US20020058636A1, “RIBOZYMES TARGETING THE RETROVIRAL PACKAGING SEQUENCE EXPRESSION CONSTRUCTS AND RECOMBINANT RETROVIRUSES CONTAINING SUCH CONSTRUCTS” (priority 1994, published 2002)

Key:
Type in all cases: cell-based
HIV-1 (SF2) [1] = test: Syncitia formation of infected SupT1 cells over days post infection
Method: The anti-HIV packaging site construct, pSV-Rz-HIV-Psi, was electroporated into Sup T-1 cells, a human T lymphoma cell line. Exponentially growing cells were harvested and the number of viable cells counted by dye exclusion. The cells were washed with PBS and resuspended at a density of 1×10^7 viable cells/ml in RPMI media without FCS but containing 10 m,M dextrose and 0.1 mM dithiothreitol. 0.4 ml of the cell suspension and 10 μg of pSV-Rz-HIV-Psi plasmid DNA were used per electroporation in 0.4 cm cuvettes (Bio-Rad) . The cell and DNA mixture was subjected to a single pulse of 960 μF, 200V from a Gene Pulser (Bio-Rad) . After shocking, the cuvette was incubated for 10 minutes at room temperature, and the cells were then transferred to 10 ml of RPMI media with 10% FCS and placed into an incubator (5%CO2, 37° C.). At 48 hours post electroporation, the cells were selected in medium supplemented with 800 μg/ml G418. 9-12 days later, positive colonies were isolated and grown as clonal isolates to be used in a HIV protection assay.
(§1) Two assays, p24 antigen and syncytium formation, were performed to assess efficacy of the anti-HIV Psi ribozyme construct in cell culture. HIV-1 p24 antigen assay is an enzyme immunoassay, which uses a murine monoclonal antibody against HIV core antigen coated onto microwell strips. The HIV-1 syncytium assay is based on the observation that HIV-1 interacts with target T lymphocytes by causing fusion resulting in the formation of syncytia, large cells containing many nuclei. The clonal ribozyme-construct expressing cells, plus controls, were infected with HIV-1 (SF2) at m.o.i. of 0.1 to 1. After 2 hours, the cells were washed, and 10 ml of fresh media was added. Every 3-4 days, the number of both syncitia and viable cells were counted. […] In addition, the presence of the ribozyme caused a delay in syncitia formation (Table 4).

HIV-1 IIIB = test: BM12 antibody and ribozyme expression, p24 production in SupT1 cells; settings: BM12 Concentration 0.00 μg/ml
Method: The anti-HIV-1 antibody BM12 has been tested for its potential combined effect with ribozymes on HIV-1 replication. Rz2 (a single ribozyme targeted to the HIV-1 tat gene) and SV2neo vector expressing SupT1 cells were infected with HIV-1 IIIB virus for 2 hr and then washed. The cells were resuspended in BM12 antibody containing medium (0, 0.5, 5, 50 μg BM12 antibody/ml) and incubated at 37° C., 5% CO2. Samples of medium were taken at days 3, 5, 9, 12 and 15 for p24 assays. Cytopathic effect (CPE) determined by syncytia formation was monitored at days 3, 6, 9, 12. […] The following Table 6 summarizes the p24 data at day 15.

HIV-1 (SF2) [2] = test: HIV-1 p24 antigen assay in ribozyme-expressing Sup T-1 cells
Method: Vector, is the control construct. Rz-2 and Rz-M are two ribozyme constructs targeted to the tat gene of HIV. Rz-M is a multi-ribozyme containing several ribozymes targeted to different sites within tat. This includes the site targeted by Rz-2.
as §1
In another experimental protocol, the cells were pelleted, and an aliquot of the supernatant taken for p24 assay. In this experiment there was an inhibition of p24 levels to day 22 post challenge.

Row | Sequence | Syncitia formation (HIV-1 (SF2) [1]; 6 Days Post Infection) | Syncitia formation (HIV-1 (SF2) [1]; 7 Days Post Infection) | Syncitia formation (HIV-1 (SF2) [1]; 8 Days Post Infection) | Syncitia formation (HIV-1 (SF2) [1]; 9 Days Post Infection) | Syncitia formation (HIV-1 (SF2) [1]; 10 Days Post Infection) | Syncitia formation (HIV-1 (SF2) [1]; 11 Days Post Infection) | p24 Production at Day 15 (HIV-1 IIIB) [ng/mL] | inhibition of HIV-1 replication (HIV-1 (SF2) [2])
1 | GTCAAAAATTGGCGCTGATGAGTCCGTGAGGACGAAACTCACCAGTCGCCG (chemistry not given here) [Rz-Psi, single anti-HIV Psi packaging site ribozyme cloned into neo r gene of pSV2neo] | − (−, no syncytia) | − (−, no syncytia) | − (−, no syncytia) | − (−, no syncytia) | − (−, no syncytia) | − (−, no syncytia) | – | –
2 | TTAGGATCCTGATGAGTCCGTGAGGACGAAACTGGCTC (chemistry not given here) [Rz-2, single ribozyme targeted to the HIV-1 tat gene] | – | – | – | – | – | – | 1.90 | effective in inhibiting HIV-1 replication
